Results taken from ChEMBL document CHEMBL5512645, “A novel antimicrobial peptide with broad-spectrum and exceptional stability derived from the natural peptide Brevicidine” (Eur J Med Chem, 2024).
Values after ≈ are worked out from the molar mass of the structure shown. Bridge positions count the residues as written; N and C are the ends. Square brackets hold non-standard residues; d marks the D form. Peptide text beside a SMILES is read from it. * marks the point of attachment. Lauroyl = CCCCCCCCCCCC(=O)*; Decanoyl = CCCCCCCCCC(=O)*; dOrn = NCCC[C@@H](N)C(=O)O; Octanoyl = CCCCCCCC(=O)*; Orn = NCCC[C@H](N)C(=O)O

Experiments:
Bacillus subtilis = experiment: Antibacterial activity against Bacillus subtilis ATCC 23857 incubated for 18 to 24 hrs by broth microdilution method; type: functional; details: time 18-24 hrs
Klebsiella pneumoniae = experiment: Antibacterial activity against Klebsiella pneumoniae ATCC 700603 incubated for 18 to 24 hrs by broth microdilution method; type: functional; details: time 18-24 hrs
Acinetobacter baumannii = experiment: Antibacterial activity against Acinetobacter baumannii ATCC 19606 incubated for 18 to 24 hrs by broth microdilution method; type: functional; details: time 18-24 hrs
Staphylococcus aureus = experiment: Antibacterial activity against Staphylococcus aureus ATCC 25923 incubated for 18 to 24 hrs by broth microdilution method; type: functional; details: time 18-24 hrs
Enterococcus faecalis = experiment: Antibacterial activity against Enterococcus faecalis ATCC 29212 incubated for 18 to 24 hrs by broth microdilution method; type: functional; details: time 18-24 hrs
Escherichia coli = experiment: Antibacterial activity against Escherichia coli ATCC 25922 incubated for 18 to 24 hrs by broth microdilution method; type: functional; details: time 18-24 hrs
[1] = system: Staphylococcus epidermidis; experiment: Antibacterial activity against Staphylococcus epidermidis ATCC 12228 incubated for 18 to 24 hrs by broth microdilution method; type: functional; details: time 18-24 hrs
Erythrocyte = experiment: Hemolytic activity in mouse red blood cell assessed as hemolysis incubated for 1 hr; type: toxicity, cell-based
Pseudomonas aeruginosa = experiment: Antibacterial activity against Pseudomonas aeruginosa ATCC 27853 incubated for 18 to 24 hrs by broth microdilution method; type: functional; details: time 18-24 hrs

Row | MIC (Bacillus subtilis) [µM] | MIC (Klebsiella pneumoniae) [µM] | MIC (Acinetobacter baumannii) [µM] | MIC (Staphylococcus aureus) [µM] | MIC (Enterococcus faecalis) [µM] | MIC (Escherichia coli) [µM] | MIC [1] [µM] | MIC (Pseudomonas aeruginosa) [µM] | SMILES | MHC (Erythrocyte) [µM]
1 | 32 (≈ 50 µg/mL) | 8 (≈ 12.5 µg/mL) | 8 (≈ 12.5 µg/mL) | 64 (≈ 100 µg/mL) | 64 (≈ 100 µg/mL) | 4 (≈ 6.25 µg/mL) | 32 (≈ 50 µg/mL) | 4 (≈ 6.25 µg/mL) | CCC(C)CCC(=O)N[C@H](CC(N)=O)C(=O)N[C@H](Cc1ccc(O)cc1)C(=O)N[C@H](Cc1c[nH]c2ccccc12)C(=O)N[C@H](CCCCN)C(=O)N[C@@H](CCCCN)C(=O)NCC(=O)N[C@H](CCCCN)C(=O)N[C@@H](Cc1c[nH]c2ccccc12)C(=O)N[C@@H]1C(=O)N[C@@H]([C@@H](C)CC)C(=O)NCC(=O)N[C@@H](CO)C(=O)O[C@@H]1C (stereo not given in full) | 128
2 | 16 (≈ 23.6 µg/mL) | 8 (≈ 11.8 µg/mL) | 32 (≈ 47.3 µg/mL) | 64 (≈ 94.6 µg/mL) | 64 (≈ 94.6 µg/mL) | 4 (≈ 5.91 µg/mL) | 8 (≈ 11.8 µg/mL) | 4 (≈ 5.91 µg/mL) | CCC(C)CCC(=O)N[C@H](CC(N)=O)C(=O)N[C@H](Cc1ccc(O)cc1)C(=O)N[C@H](Cc1c[nH]c2ccccc12)C(=O)N[C@H](CCN)C(=O)N[C@@H](CCN)C(=O)NCC(=O)N[C@H](CCN)C(=O)N[C@@H](Cc1c[nH]c2ccccc12)C(=O)N[C@@H]1C(=O)N[C@@H]([C@@H](C)CC)C(=O)NCC(=O)N[C@@H](CO)C(=O)O[C@@H]1C (stereo not given in full) | 128
3 | 16 (≈ 25 µg/mL) | 16 (≈ 25 µg/mL) | 16 (≈ 25 µg/mL) | 32 (≈ 50 µg/mL) | 64 (≈ 100 µg/mL) | 8 (≈ 12.5 µg/mL) | 16 (≈ 25 µg/mL) | 8 (≈ 12.5 µg/mL) | CCCCCCCCCC(=O)N[C@H](CCCN)C(=O)N[C@H](Cc1ccc(O)cc1)C(=O)N[C@H](Cc1c[nH]c2ccccc12)C(=O)N[C@H](CCCN)C(=O)N[C@@H](CCCN)C(=O)NCC(=O)N[C@H](CCCN)C(=O)N[C@@H](Cc1c[nH]c2ccccc12)C(=O)N[C@@H]1C(=O)N[C@@H]([C@@H](C)CC)C(=O)NCC(=O)N[C@@H](CO)C(=O)O[C@@H]1C | 128
4 | 4 (≈ 6.31 µg/mL) | 2 (≈ 3.15 µg/mL) | 16 (≈ 25.2 µg/mL) | 32 (≈ 50.5 µg/mL) | > 128 | 8 (≈ 12.6 µg/mL) | 16 (≈ 25.2 µg/mL) | 1 (≈ 1.58 µg/mL) | CCC(C)CCC(=O)N[C@H](CCCN)C(=O)N[C@H](Cc1ccc(O)cc1)C(=O)N[C@H](Cc1c[nH]c2ccccc12)C(=O)N[C@H](CCCN)C(=O)N[C@@H](CCCN)C(=O)N[C@@H](CCCN)C(=O)N[C@H](CCCN)C(=O)N[C@@H](Cc1c[nH]c2ccccc12)C(=O)N[C@@H]1C(=O)N[C@@H]([C@@H](C)CC)C(=O)NCC(=O)N[C@@H](CO)C(=O)O[C@@H]1C (stereo not given in full) | 128
5 | 4 (≈ 6.25 µg/mL) | 2 (≈ 3.12 µg/mL) | 2 (≈ 3.12 µg/mL) | 16 (≈ 25 µg/mL) | 32 (≈ 50 µg/mL) | 2 (≈ 3.12 µg/mL) | 4 (≈ 6.25 µg/mL) | 2 (≈ 3.12 µg/mL) | CCCCCCCCCC(=O)N[C@H](CC(N)=O)C(=O)N[C@H](Cc1ccc(O)cc1)C(=O)N[C@H](Cc1c[nH]c2ccccc12)C(=O)N[C@H](CCCN)C(=O)N[C@@H](CCCN)C(=O)NCC(=O)N[C@H](CCCN)C(=O)N[C@@H](Cc1c[nH]c2ccccc12)C(=O)N[C@@H]1C(=O)N[C@@H]([C@@H](C)CC)C(=O)NCC(=O)N[C@@H](CO)C(=O)O[C@@H]1C (Decanoyl-[dN][dY][dW][dOrn][Orn]G[dOrn]WTIGS; ester 9-C) | 8
6 | 4 (≈ 6.36 µg/mL) | 8 (≈ 12.7 µg/mL) | 4 (≈ 6.36 µg/mL) | 16 (≈ 25.4 µg/mL) | 16 (≈ 25.4 µg/mL) | 8 (≈ 12.7 µg/mL) | 4 (≈ 6.36 µg/mL) | 2 (≈ 3.18 µg/mL) | CCCCCCCCCCCC(=O)N[C@H](CC(N)=O)C(=O)N[C@H](Cc1ccc(O)cc1)C(=O)N[C@H](Cc1c[nH]c2ccccc12)C(=O)N[C@H](CCCN)C(=O)N[C@@H](CCCN)C(=O)NCC(=O)N[C@H](CCCN)C(=O)N[C@@H](Cc1c[nH]c2ccccc12)C(=O)N[C@@H]1C(=O)N[C@@H]([C@@H](C)CC)C(=O)NCC(=O)N[C@@H](CO)C(=O)O[C@@H]1C (Lauroyl-[dN][dY][dW][dOrn][Orn]G[dOrn]WTIGS; ester 9-C) | 4
7 | 8 (≈ 12.3 µg/mL) | 4 (≈ 6.14 µg/mL) | 4 (≈ 6.14 µg/mL) | 32 (≈ 49.1 µg/mL) | 64 (≈ 98.2 µg/mL) | 2 (≈ 3.07 µg/mL) | 16 (≈ 24.5 µg/mL) | 2 (≈ 3.07 µg/mL) | CCCCCCCC(=O)N[C@H](CC(N)=O)C(=O)N[C@H](Cc1ccc(O)cc1)C(=O)N[C@H](Cc1c[nH]c2ccccc12)C(=O)N[C@H](CCCN)C(=O)N[C@@H](CCCN)C(=O)NCC(=O)N[C@H](CCCN)C(=O)N[C@@H](Cc1c[nH]c2ccccc12)C(=O)N[C@@H]1C(=O)N[C@@H]([C@@H](C)CC)C(=O)NCC(=O)N[C@@H](CO)C(=O)O[C@@H]1C (Octanoyl-[dN][dY][dW][dOrn][Orn]G[dOrn]WTIGS; ester 9-C) | 64
8 | 8 | 16 | 8 | 16 | 32 | 16 | 16 | 8 | CCC(C)CCC(=O)N[C@H](CC(N)=O)C(=O)N[C@H](Cc1ccc(-c2ccccc2)cc1)C(=O)N[C@H](Cc1c[nH]c2ccccc12)C(=O)N[C@H](CCCN)C(=O)N[C@@H](CCCN)C(=O)NCC(=O)N[C@H](CCCN)C(=O)N[C@@H](Cc1c[nH]c2ccccc12)C(=O)N[C@@H]1C(=O)N[C@@H]([C@@H](C)CC)C(=O)NCC(=O)N[C@@H](CO)C(=O)O[C@@H]1C (mixture of isomers) | 8
9 | 16 | 32 | 32 | > 128 | > 128 | 16 | 8 | 2 | CCC(C)CCC(=O)N[C@H](CC(N)=O)C(=O)N[C@H](C)C(=O)N[C@H](Cc1c[nH]c2ccccc12)C(=O)N[C@H](CCCN)C(=O)N[C@@H](CCCN)C(=O)NCC(=O)N[C@H](CCCN)C(=O)N[C@@H](Cc1c[nH]c2ccccc12)C(=O)N[C@@H]1C(=O)N[C@@H]([C@@H](C)CC)C(=O)NCC(=O)N[C@@H](CO)C(=O)O[C@@H]1C (mixture of isomers) | 128
10 | 32 | 16 | 32 | 128 | > 128 | 32 | 16 | 4 | CCC(C)CCC(=O)N[C@H](CC(N)=O)C(=O)N[C@H](Cc1ccc(O)cc1)C(=O)N[C@H](Cc1c[nH]c2ccccc12)C(=O)N[C@H](CN)C(=O)N[C@@H](CN)C(=O)NCC(=O)N[C@H](CN)C(=O)N[C@@H](Cc1c[nH]c2ccccc12)C(=O)N[C@@H]1C(=O)N[C@@H]([C@@H](C)CC)C(=O)NCC(=O)N[C@@H](CO)C(=O)O[C@@H]1C (mixture of isomers) | 128
11 | 8 | 8 | 8 | 32 | 32 | 8 | 16 | 4 | CCC(C)CCC(=O)N[C@H](CC(N)=O)C(=O)N[C@H](Cc1ccc2ccccc2c1)C(=O)N[C@H](Cc1c[nH]c2ccccc12)C(=O)N[C@H](CCCN)C(=O)N[C@@H](CCCN)C(=O)NCC(=O)N[C@H](CCCN)C(=O)N[C@@H](Cc1c[nH]c2ccccc12)C(=O)N[C@@H]1C(=O)N[C@@H]([C@@H](C)CC)C(=O)NCC(=O)N[C@@H](CO)C(=O)O[C@@H]1C (mixture of isomers) | 8
12 | 8 | 16 | 8 | 16 | 32 | 16 | 16 | 8 | CCC(C)CCC(=O)N[C@H](CC(N)=O)C(=O)N[C@H](Cc1ccc(C(C)(C)C)cc1)C(=O)N[C@H](Cc1c[nH]c2ccccc12)C(=O)N[C@H](CCCN)C(=O)N[C@@H](CCCN)C(=O)NCC(=O)N[C@H](CCCN)C(=O)N[C@@H](Cc1c[nH]c2ccccc12)C(=O)N[C@@H]1C(=O)N[C@@H]([C@@H](C)CC)C(=O)NCC(=O)N[C@@H](CO)C(=O)O[C@@H]1C (mixture of isomers) | 16
13 | 16 | 4 | 8 | 64 | 64 | 4 | 2 | 4 | CCC(C)CCC(=O)N[C@H](CC(N)=O)C(=O)N[C@H](Cc1ccc(O)cc1)C(=O)N[C@H](Cc1c[nH]c2ccccc12)C(=O)N[C@H](CCCNC(=N)N)C(=O)N[C@@H](CCCNC(=N)N)C(=O)NCC(=O)N[C@H](CCCNC(=N)N)C(=O)N[C@@H](Cc1c[nH]c2ccccc12)C(=O)N[C@@H]1C(=O)N[C@@H]([C@@H](C)CC)C(=O)NCC(=O)N[C@@H](CO)C(=O)O[C@@H]1C (mixture of isomers) | 128
14 | 8 | 8 | 8 | 32 | 64 | 8 | 16 | 4 | CCC(C)CCC(=O)N[C@H](CC(N)=O)C(=O)N[C@H](Cc1ccc(C)cc1)C(=O)N[C@H](Cc1c[nH]c2ccccc12)C(=O)N[C@H](CCCN)C(=O)N[C@@H](CCCN)C(=O)NCC(=O)N[C@H](CCCN)C(=O)N[C@@H](Cc1c[nH]c2ccccc12)C(=O)N[C@@H]1C(=O)N[C@@H]([C@@H](C)CC)C(=O)NCC(=O)N[C@@H](CO)C(=O)O[C@@H]1C (mixture of isomers) | 32
15 | 16 | 16 | 32 | 128 | > 128 | 8 | 64 | 4 | CCC(C)CCC(=O)N[C@H](CC(N)=O)C(=O)N[C@H](Cc1ccc(N)cc1)C(=O)N[C@H](Cc1c[nH]c2ccccc12)C(=O)N[C@H](CCCN)C(=O)N[C@@H](CCCN)C(=O)NCC(=O)N[C@H](CCCN)C(=O)N[C@@H](Cc1c[nH]c2ccccc12)C(=O)N[C@@H]1C(=O)N[C@@H]([C@@H](C)CC)C(=O)NCC(=O)N[C@@H](CO)C(=O)O[C@@H]1C (mixture of isomers) | 128
